Assay results reported in ChEMBL document CHEMBL5620409, “Discovery of tetrasubstituted thiophenes as Cisd2 activators: A potential novel therapeutic option in nonalcoholic fatty liver disease” (Eur J Med Chem, 2023).
Blank lines part the entries; values can stand above or below the molecule they belong to. Calls of active or inactive are those of the source. No cut-off for these calls is given here.

Key:
[1] = molecular target: T1, CDGSH iron-sulfur domain-containing protein 2 (Homo sapiens, UniProt Q8N5K1); test: Activation of Cisd2 (unknown origin) transfected in HEK293 cells incubated for 24 hrs by one-glo luciferase assay; format: cell-based
T1 sequence (Q8N5K1 whole entry): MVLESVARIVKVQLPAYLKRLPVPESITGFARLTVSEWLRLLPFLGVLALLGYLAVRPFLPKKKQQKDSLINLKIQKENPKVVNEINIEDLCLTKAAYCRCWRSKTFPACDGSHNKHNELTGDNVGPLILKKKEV

[2] = Metabolic stability in mouse liver microsomes assessed as parent compound remaining at 5 uM in presence of NADPH-generating system measured for 30 mins by LC/MS analysis; format: ADME, Microsome; conditions: read-out: Stability
Mus musculus [3] = test: Anti-NAFLD activity in heterozygous hepatocyte-specific Cisd2 knockout C57BL/6 mouse assessed as reduction in accumulation of fat in liver at 20 mg/kg, po measured for 2 weeks by oil red-O staining based analysis; format: functional, organism-based
[4] = Toxicity in wild type C57BL/6 mouse assessed as effect on ALT level in serum at 20 mg/kg, po administered for 2 weeks; format: organism-based; conditions: in vivo, 336 h
[5] = Toxicity in wild type C57BL/6 mouse assessed as effect on GPT level in serum at 20 mg/kg, po administered for 2 weeks; format: organism-based; conditions: in vivo, 336 h
[6] = Toxicity in heterozygous hepatocyte-specific Cisd2 knockout C57BL/6 mouse assessed as effect on ALT level in serum at 20 mg/kg, po administered for 2 weeks; format: organism-based; conditions: in vivo, 336 h
[7] = Toxicity in heterozygous hepatocyte-specific Cisd2 knockout C57BL/6 mouse assessed as effect on body weight at 20 mg/kg, po measured for 2 weeks; format: organism-based; conditions: in vivo, 336 h
[8] = Toxicity in wild type C57BL/6 mouse assessed as effect on AST level in serum at 20 mg/kg, po administered for 2 weeks; format: organism-based; conditions: in vivo, 336 h
Mus musculus [9] = test: Anti-NAFLD activity in heterozygous hepatocyte-specific Cisd2 knockout C57BL/6 mouse assessed as fold increase in Cisd2 expression in liver at 20 mg/kg, po measured for 12 week by Western blot analysis; format: functional; conditions: time 12 weeks
[10] = Toxicity in wild type C57BL/6 mouse assessed as effect on BUN level in serum at 20 mg/kg, po administered for 2 weeks; format: organism-based; conditions: in vivo, 336 h
[11] = Toxicity in wild type C57BL/6 mouse assessed as change in liver histology at 20 mg/kg, po administered for 2 weeks; format: organism-based; conditions: in vivo, 336 h
[12] = Toxicity in heterozygous hepatocyte-specific Cisd2 knockout C57BL/6 mouse assessed as effect on CRE level in serum at 20 mg/kg, po administered for 2 weeks; format: organism-based; conditions: in vivo, 336 h
Mus musculus [13] = test: Anti-NAFLD activity in heterozygous hepatocyte-specific Cisd2 knockout C57BL/6 mouse assessed as reduction in hepatic steatosis in liver at 20 mg/kg, po measured for 2 weeks by H and E staining based analysis; format: functional, organism-based
[14] = Toxicity in wild type C57BL/6 mouse assessed as food intake at 20 mg/kg, po measured for 5 consecutive days; format: organism-based; conditions: in vivo, 120 h, time 5 day
[15] = Toxicity in wild type C57BL/6 mouse assessed as effect on GOT level in serum at 20 mg/kg, po administered for 2 weeks; format: organism-based; conditions: in vivo, 336 h
Mus musculus [16] = test: Anti-NAFLD activity in wild type C57BL/6 mouse assessed as effect on triglyceride level in serum at 20 mg/kg, po measured for 12 week; format: functional, organism-based; conditions: time 12.0 weeks
Mus musculus [17] = test: Anti-NAFLD activity in wild type C57BL/6 mouse assessed as fold increase in Cisd2 expression in liver at 20 mg/kg, po measured for 12 week by Western blot analysis; format: functional; conditions: time 12 weeks
Mus musculus [18] = test: Anti-NAFLD activity in heterozygous hepatocyte-specific Cisd2 knockout C57BL/6 mouse assessed as abnormal hepatic lipid accumulation in liver at 20 mg/kg, po measured for 2 weeks; format: functional, organism-based
[19] = Toxicity in wild type C57BL/6 mouse assessed as effect on CRE level in serum at 20 mg/kg, po administered for 2 weeks; format: organism-based; conditions: in vivo, 336 h
Mus musculus [20] = test: Anti-NAFLD activity in heterozygous hepatocyte-specific Cisd2 knockout C57BL/6 mouse assessed as effect on triglyceride level in serum at 20 mg/kg, po measured for 12 week; format: functional, organism-based; conditions: time 12.0 weeks
[21] = Toxicity in wild type C57BL/6 mouse assessed as effect on body weight at 20 mg/kg, po measured for 2 weeks; format: organism-based; conditions: in vivo, 336 h
Mus musculus [22] = test: Anti-NAFLD activity in heterozygous hepatocyte-specific Cisd2 knockout C57BL/6 mouse assessed as reduction in ballooning degeneration of hepatocytes at 20 mg/kg, po measured for 2 weeks by H and E staining based analysis; format: functional, organism-based
[23] = Toxicity in heterozygous hepatocyte-specific Cisd2 knockout C57BL/6 mouse assessed as effect on GOT level in serum at 20 mg/kg, po administered for 2 weeks; format: organism-based; conditions: in vivo, 336 h
[24] = Toxicity in heterozygous hepatocyte-specific Cisd2 knockout C57BL/6 mouse assessed as effect on GPT level in serum at 20 mg/kg, po administered for 2 weeks; format: organism-based; conditions: in vivo, 336 h
[25] = Toxicity in heterozygous hepatocyte-specific Cisd2 knockout C57BL/6 mouse assessed as effect on AST level in serum at 20 mg/kg, po administered for 2 weeks; format: organism-based; conditions: in vivo, 336 h
[26] = Toxicity in heterozygous hepatocyte-specific Cisd2 knockout C57BL/6 mouse assessed as effect on BUN level in serum at 20 mg/kg, po administered for 2 weeks; format: organism-based; conditions: in vivo, 336 h

SMILES: COC(=O)c1c(NC(C)=O)sc(C(=O)Nc2ccc(C)cc2C)c1C
EC50 [1]: 4.44 µM

SMILES: CC(=O)c1c(N)sc(C(=O)Nc2ccc(C)cc2C)c1C
remaining at 0.5 h, 5 µM [2]: 0%
EC50 [1]: 0.164 µM

SMILES: CNc1sc(C(=O)Nc2ccc(C)cc2C)c(C)c1C(=O)OC
EC50 [1]: > 10 µM

SMILES: Cc1ccc(NC(=O)c2sc(N)c(C(=O)OC(C)(C)C)c2C)c(C)c1
EC50 [1]: 1.34 µM

SMILES: Cc1ccc(NC(=O)c2sc(N)c(C(N)=O)c2C)c(C)c1
EC50 [1]: 0.979 µM

SMILES: CC(=O)c1c(N)sc(C(=O)Nc2ccccc2)c1C
EC50 [1]: 0.553 µM

SMILES: Cc1ccc(NC(=O)c2sc(N)c(C(=O)OC(C)C)c2C)c(C)c1
EC50 [1]: 1.52 µM

SMILES: COC(=O)c1c(N)sc(C(=O)Nc2ccc(C)cc2C)c1C
remaining at 0.5 h, 5 µM [2]: 27.6%
EC50 [1]: 0.046 µM

SMILES: COC(=O)c1c(N)sc(C(=O)Nc2c(C)cc(C)cc2C)c1C
EC50 [1]: 1.7 µM

SMILES: COC(=O)c1c(N)sc(C(=O)Nc2cc(OC)c(OC)c(OC)c2)c1C
EC50 [1]: 2.18 µM

SMILES: Cc1ccc(NC(=O)c2sc(N)c(C(=O)O)c2C)c(C)c1
EC50 [1]: 0.296 µM

SMILES: COC(=O)c1sccc1NC(=O)c1sc(N)c(C(=O)OC)c1C
EC50 [1]: > 10 µM

SMILES: Cc1ccc(NC(=O)c2sc(N)c(C(=O)NCC#N)c2C)c(C)c1
EC50 [1]: 1.59 µM

SMILES: CCOC(=O)c1c(N)sc(C(=O)Nc2ccc(C)cc2C)c1C
remaining at 0.5 h, 5 µM [2]: 60.6%
EC50 [1]: 0.197 µM

SMILES: COC(=O)c1c(N)sc(C(=O)Nc2nccs2)c1C
remaining at 0.5 h, 5 µM [2]: 44.5%
EC50 [1]: 0.153 µM

SMILES: Cc1ccc(NC(=O)c2sc(N)c(C(=O)OCc3ccccc3)c2C)c(C)c1
EC50 [1]: > 10 µM

SMILES: Cc1ccc(NC(=O)c2sc(N)c(C(=O)CO)c2C)c(C)c1
EC50 [1]: 0.809 µM

SMILES: COC(=O)c1cc(C(=O)Nc2ccc(C)cc2C)sc1N
EC50 [1]: 2.08 µM

SMILES: Cc1ccc(NC(=O)c2sc(N)c(C#N)c2C)c(C)c1
EC50 [1]: 2.67 µM

SMILES: COC(=O)c1c(N)sc(C(=O)Nc2nc3ccccc3s2)c1C
EC50 [1]: > 10 µM

The next lines start with results.

remaining at 0.5 h, 5 µM [2]: 91.8%
EC50 [1]: 0.191 µM
SMILES: COC(=O)c1c(N)sc(C(=O)Nc2ccc(O)cc2)c1C
Activity (Mus musculus [3]): Active
Activity [4]: Non-Toxic
Activity [5]: Non-Toxic
Activity [6]: Non-Toxic
Activity [7]: Non-Toxic
Activity [8]: Non-Toxic
fold change (FC) (Mus musculus [9]): 2
Activity [10]: Non-Toxic
Activity [11]: Non-Toxic
Activity [12]: Non-Toxic
Activity (Mus musculus [13]): Active
Activity [14]: Non-Toxic
Activity [15]: Non-Toxic
Activity (Mus musculus [16]): Active
fold change (FC) (Mus musculus [17]): 1.3
Activity (Mus musculus [18]): Active
Activity [19]: Non-Toxic
Activity (Mus musculus [20]): Active
Activity [21]: Non-Toxic
Activity (Mus musculus [22]): Active
Activity [23]: Non-Toxic
Activity [24]: Non-Toxic
Activity [25]: Non-Toxic
Activity [26]: Non-Toxic

remaining at 0.5 h, 5 µM [2]: 53.3%
EC50 [1]: 0.233 µM
SMILES: COC(=O)c1c(N)sc(C(=O)Nc2ccccc2C)c1C

EC50 [1]: 3.07 µM
SMILES: COC(=O)c1c(N)sc(C(=O)Nc2ccccc2OC)c1C

remaining at 0.5 h, 5 µM [2]: 73.6%
EC50 [1]: 0.012 µM
SMILES: COC(=O)c1c(N)sc(C(=O)Nc2ccc(OC)cc2)c1C

EC50 [1]: 0.252 µM
SMILES: COC(=O)c1c(N)sc(C(=O)Nc2ccc(C(F)(F)F)cc2)c1C

remaining at 0.5 h, 5 µM [2]: 54.7%
EC50 [1]: 0.035 µM
SMILES: COC(=O)c1c(N)sc(C(=O)Nc2ccc(N(C)C)cc2)c1C

remaining at 0.5 h, 5 µM [2]: 63.5%
EC50 [1]: 0.095 µM
SMILES: COC(=O)c1c(N)sc(C(=O)Nc2ccccc2)c1C

remaining at 0.5 h, 5 µM [2]: 84.9%
EC50 [1]: 0.034 µM
SMILES: COC(=O)c1c(N)sc(C(=O)Nc2ccc(F)cc2)c1C
Activity (Mus musculus [3]): Active
Activity [4]: Non-Toxic
Activity [5]: Non-Toxic
Activity [6]: Non-Toxic
Activity [7]: Non-Toxic
Activity [8]: Non-Toxic
fold change (FC) (Mus musculus [9]): 2
Activity [10]: Non-Toxic
Activity [11]: Non-Toxic
Activity [12]: Non-Toxic
Activity (Mus musculus [13]): Active
Activity [14]: Non-Toxic
Activity [15]: Non-Toxic
Activity (Mus musculus [16]): Active
fold change (FC) (Mus musculus [17]): 1.3
Activity (Mus musculus [18]): Active
Activity [19]: Non-Toxic
Activity (Mus musculus [20]): Active
Activity [21]: Non-Toxic
Activity (Mus musculus [22]): Active
Activity [23]: Non-Toxic
Activity [24]: Non-Toxic
Activity [25]: Non-Toxic
Activity [26]: Non-Toxic

remaining at 0.5 h, 5 µM [2]: 59.2%
EC50 [1]: 0.023 µM
SMILES: COC(=O)c1c(N)sc(C(=O)Nc2cccc(OC)c2)c1C

remaining at 0.5 h, 5 µM [2]: 49.2%
EC50 [1]: 0.16 µM
SMILES: CC(=O)c1c(N)sc(C(=O)Nc2ccc(F)cc2)c1C

remaining at 0.5 h, 5 µM [2]: 73.2%
EC50 [1]: 0.01 µM
SMILES: COC(=O)c1c(N)sc(C(=O)Nc2ccc(C)cc2)c1C

EC50 [1]: 0.661 µM
SMILES: COC(=O)c1c(N)sc(C(=O)Nc2cccnc2)c1C

remaining at 0.5 h, 5 µM [2]: 83.7%
EC50 [1]: 0.082 µM
SMILES: COC(=O)c1c(N)sc(C(=O)Nc2ccc(C#N)cc2)c1C

remaining at 0.5 h, 5 µM [2]: 53.8%
EC50 [1]: 0.035 µM
SMILES: COC(=O)c1c(N)sc(C(=O)Nc2cccc(C)c2)c1C
